Results taken from patent US20100261710A1, “HDAC Inhibitors” (ARQULE, INC., priority 2007, published 2010).
Where two headings read alike, the source gives them in different places.

Legend:
HDAC3 = target: T1, HDAC3 (Homo sapiens, UniProt O15379); experiment: HDAC isoform assay, HDAC3; type: biochemical
T1 construct: purchased BioMol
Procedure: The assay measures the ability of a small molecule to inhibit deacetylation of the substrate. Activator reagent recognizes the substrate only if the lysine has been deacetylated.
This homogeneous assay in performed in the same well without washing steps. The HDAC source, nuclear HeLa extract, is incubated with substrate in the presence of an inhibitor compound. At the end of the reaction time, activator solution, containing Trypsin and TSA, is added to stop the deacetylation reaction, and cleave the amino-coumarin from the deacetylated substrate. The plate is then read on either a Perkin Elmer Victor or Envision system using Umbilliferone filter set. […] The signal is directly proportional to the activity of HDACs and compound inhibition of HDAC is monitored by a decrease in signal.

HDAC4 = target: T2, HDAC4 (Homo sapiens, UniProt P56524); experiment: HDAC isoform assay, HDAC4; type: biochemical; conditions: substrate KI-177; read-out: HDAC4, IC50, ELISA (KI-177)
T2 construct: purchased BioMol
T2 sequence (P56524 whole entry, canonical isoform): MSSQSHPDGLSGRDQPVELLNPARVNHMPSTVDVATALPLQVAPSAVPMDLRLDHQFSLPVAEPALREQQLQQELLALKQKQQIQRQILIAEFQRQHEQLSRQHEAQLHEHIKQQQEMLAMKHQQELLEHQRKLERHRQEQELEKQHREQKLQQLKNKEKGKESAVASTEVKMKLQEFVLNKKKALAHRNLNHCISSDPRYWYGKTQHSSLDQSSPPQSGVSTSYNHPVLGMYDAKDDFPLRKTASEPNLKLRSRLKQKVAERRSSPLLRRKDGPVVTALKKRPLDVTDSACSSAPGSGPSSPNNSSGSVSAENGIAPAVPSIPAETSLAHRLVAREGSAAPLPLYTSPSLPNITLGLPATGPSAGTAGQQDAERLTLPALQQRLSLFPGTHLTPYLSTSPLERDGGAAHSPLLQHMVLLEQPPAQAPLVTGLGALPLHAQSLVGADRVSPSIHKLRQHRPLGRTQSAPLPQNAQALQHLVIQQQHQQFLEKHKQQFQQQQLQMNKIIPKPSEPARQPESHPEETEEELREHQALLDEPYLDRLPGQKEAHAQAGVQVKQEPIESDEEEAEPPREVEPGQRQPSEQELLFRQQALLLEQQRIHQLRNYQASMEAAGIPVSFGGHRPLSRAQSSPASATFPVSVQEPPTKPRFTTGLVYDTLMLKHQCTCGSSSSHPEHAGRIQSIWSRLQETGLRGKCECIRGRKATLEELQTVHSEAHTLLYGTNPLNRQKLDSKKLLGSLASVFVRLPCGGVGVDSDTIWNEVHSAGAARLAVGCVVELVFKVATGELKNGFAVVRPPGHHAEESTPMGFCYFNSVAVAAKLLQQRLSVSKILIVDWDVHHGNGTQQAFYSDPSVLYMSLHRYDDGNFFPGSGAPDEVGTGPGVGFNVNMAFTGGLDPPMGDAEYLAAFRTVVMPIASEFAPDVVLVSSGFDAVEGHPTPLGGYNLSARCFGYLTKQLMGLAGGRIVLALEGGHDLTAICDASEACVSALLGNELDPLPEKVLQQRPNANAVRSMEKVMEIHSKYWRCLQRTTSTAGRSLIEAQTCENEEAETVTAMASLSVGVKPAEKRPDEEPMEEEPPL

HDAC9 = target: T3, HDAC9 (Homo sapiens, UniProt Q9UKV0); experiment: HDAC isoform assay, HDAC9; type: biochemical
T3 construct: purchased BioMol
T3 sequence (Q9UKV0 whole entry, canonical isoform): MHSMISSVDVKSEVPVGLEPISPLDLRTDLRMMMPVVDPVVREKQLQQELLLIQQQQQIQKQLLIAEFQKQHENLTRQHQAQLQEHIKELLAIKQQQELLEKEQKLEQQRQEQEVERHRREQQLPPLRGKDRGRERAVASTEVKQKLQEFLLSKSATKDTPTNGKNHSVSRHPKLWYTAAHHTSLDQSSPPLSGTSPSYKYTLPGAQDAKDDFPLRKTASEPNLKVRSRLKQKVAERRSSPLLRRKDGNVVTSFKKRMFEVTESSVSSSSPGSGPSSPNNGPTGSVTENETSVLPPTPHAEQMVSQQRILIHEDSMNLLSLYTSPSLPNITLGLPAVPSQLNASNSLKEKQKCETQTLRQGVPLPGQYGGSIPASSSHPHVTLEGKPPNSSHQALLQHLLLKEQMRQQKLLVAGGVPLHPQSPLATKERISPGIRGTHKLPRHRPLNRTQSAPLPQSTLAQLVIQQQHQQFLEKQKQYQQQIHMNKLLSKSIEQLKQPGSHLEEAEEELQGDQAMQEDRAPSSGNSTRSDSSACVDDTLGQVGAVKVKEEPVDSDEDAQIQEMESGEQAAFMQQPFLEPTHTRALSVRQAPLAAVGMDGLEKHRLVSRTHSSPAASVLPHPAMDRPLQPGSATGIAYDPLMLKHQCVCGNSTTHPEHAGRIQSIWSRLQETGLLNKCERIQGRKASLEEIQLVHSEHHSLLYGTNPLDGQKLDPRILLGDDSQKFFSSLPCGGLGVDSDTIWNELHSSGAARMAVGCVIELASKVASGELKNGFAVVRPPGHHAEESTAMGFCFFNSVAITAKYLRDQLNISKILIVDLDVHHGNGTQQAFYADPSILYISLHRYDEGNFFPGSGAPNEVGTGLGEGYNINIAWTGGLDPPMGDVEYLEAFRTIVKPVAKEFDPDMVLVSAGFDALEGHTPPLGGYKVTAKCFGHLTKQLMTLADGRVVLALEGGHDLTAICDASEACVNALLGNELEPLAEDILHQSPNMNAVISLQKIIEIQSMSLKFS

MJ cells = experiment: MTS cell viability assay, MJ; type: cell-based; conditions: 72 hr, read-out: MJ, IG50, MTS
Procedure: The MTS cell viability assay was used to determine the potency of proliferation inhibitor with. MTS measures mitochondrial dehydrogenase activity and serves as surrogate readout for the number of viable cells.
For MTS assay, cells were plated in 96-well plates at 2000 cells per well and incubated in the presence of compounds for 72 hr. MTS was added to each well as instructed by manufacture (Promega) and plates were incubated for 4 h at 37° C. The absorbance of each well was measured at 490 nm using a microplate reader.

HDAC6 = target: T4, HDAC6 (Homo sapiens, UniProt Q9UBN7); experiment: HDAC isoform assay, HDAC6
T4 sequence (Q9UBN7 1-1215): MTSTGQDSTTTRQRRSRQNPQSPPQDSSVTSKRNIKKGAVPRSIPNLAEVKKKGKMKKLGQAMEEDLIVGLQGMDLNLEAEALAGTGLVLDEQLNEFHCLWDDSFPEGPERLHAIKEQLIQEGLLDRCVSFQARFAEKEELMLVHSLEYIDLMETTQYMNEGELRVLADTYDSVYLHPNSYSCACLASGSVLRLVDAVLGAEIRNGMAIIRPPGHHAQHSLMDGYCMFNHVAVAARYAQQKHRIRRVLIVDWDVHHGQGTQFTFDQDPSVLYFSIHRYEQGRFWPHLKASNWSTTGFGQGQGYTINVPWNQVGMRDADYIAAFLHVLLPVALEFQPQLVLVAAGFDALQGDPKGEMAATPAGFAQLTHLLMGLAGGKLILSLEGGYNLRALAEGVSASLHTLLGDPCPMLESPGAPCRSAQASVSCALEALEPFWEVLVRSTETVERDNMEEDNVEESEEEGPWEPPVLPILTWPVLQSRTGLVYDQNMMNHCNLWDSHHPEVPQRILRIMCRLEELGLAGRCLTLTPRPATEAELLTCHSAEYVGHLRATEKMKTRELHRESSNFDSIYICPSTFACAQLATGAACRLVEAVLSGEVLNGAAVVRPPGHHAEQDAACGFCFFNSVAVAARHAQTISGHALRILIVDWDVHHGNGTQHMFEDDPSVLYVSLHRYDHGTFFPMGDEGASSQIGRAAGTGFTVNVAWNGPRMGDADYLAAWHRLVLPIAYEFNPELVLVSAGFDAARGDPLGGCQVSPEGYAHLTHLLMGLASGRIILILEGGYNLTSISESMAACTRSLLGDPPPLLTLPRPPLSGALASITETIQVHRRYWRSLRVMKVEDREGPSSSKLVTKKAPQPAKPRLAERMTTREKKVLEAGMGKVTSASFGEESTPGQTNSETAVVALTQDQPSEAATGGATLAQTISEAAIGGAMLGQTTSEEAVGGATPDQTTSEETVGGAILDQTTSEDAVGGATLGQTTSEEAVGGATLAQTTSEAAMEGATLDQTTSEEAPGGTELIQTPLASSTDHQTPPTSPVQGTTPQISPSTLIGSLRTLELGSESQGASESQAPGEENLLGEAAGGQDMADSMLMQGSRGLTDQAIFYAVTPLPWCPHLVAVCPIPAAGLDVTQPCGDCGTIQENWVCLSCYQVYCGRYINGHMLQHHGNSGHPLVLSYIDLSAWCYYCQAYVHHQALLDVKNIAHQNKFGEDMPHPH

HDAC8 = target: T5, HDAC8 (Homo sapiens, UniProt Q9BY41); experiment: HDAC isoform assay, HDAC8
T5 sequence (Q9BY41 1-377): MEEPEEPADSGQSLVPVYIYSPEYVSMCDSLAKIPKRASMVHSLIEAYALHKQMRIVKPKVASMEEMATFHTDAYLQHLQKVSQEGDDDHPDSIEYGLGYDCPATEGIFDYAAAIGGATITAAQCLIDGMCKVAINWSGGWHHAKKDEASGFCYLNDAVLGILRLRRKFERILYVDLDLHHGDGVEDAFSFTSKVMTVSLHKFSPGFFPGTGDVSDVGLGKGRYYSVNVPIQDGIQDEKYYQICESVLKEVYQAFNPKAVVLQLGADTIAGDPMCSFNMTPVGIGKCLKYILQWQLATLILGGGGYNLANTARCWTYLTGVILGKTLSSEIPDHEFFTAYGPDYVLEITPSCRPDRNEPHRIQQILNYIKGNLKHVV

[1] = substrate KI-177, read-out: HDAC3, IC50, ELISA (KI-177)

T1 sequence (O15379 whole entry, canonical isoform): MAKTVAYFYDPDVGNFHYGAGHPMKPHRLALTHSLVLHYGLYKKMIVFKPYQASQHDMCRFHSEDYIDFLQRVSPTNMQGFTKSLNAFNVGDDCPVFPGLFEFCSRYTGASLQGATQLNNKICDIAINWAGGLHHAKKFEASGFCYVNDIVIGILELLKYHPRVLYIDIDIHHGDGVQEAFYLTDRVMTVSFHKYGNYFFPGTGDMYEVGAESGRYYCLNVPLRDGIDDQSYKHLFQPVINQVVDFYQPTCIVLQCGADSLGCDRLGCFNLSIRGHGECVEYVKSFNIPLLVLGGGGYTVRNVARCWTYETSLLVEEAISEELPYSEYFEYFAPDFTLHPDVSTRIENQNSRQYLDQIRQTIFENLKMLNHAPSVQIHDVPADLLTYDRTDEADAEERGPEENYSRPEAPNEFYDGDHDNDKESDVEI
T1 sequence (O75376 395-489 partner limits assumed): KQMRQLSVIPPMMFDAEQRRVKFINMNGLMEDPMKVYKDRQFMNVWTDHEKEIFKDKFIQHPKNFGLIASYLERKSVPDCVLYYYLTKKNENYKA

SMILES	IC50 (HDAC3) [nM]	IC50 (HDAC4) [nM]	IC50 (HDAC9) [nM]	IC50 (MJ cells) [nM]	melting point [°C]	IC50 (HDAC6) [nM]	IC50 (HDAC8) [nM]	IC50 (HDAC3; [1]) [nM]
O=C(CCCCCCNC(=O)c1cn2c3c(cccc13)CCC2)NO [compound 3, N-[7-(hydroxyamino)-7-oxoheptyl]-5,6-dihydro-4H-pyrrolo[3,2,1-ij]quinoline-1-carboxamide]	45.7	40.5	413	120	205 to 206	158	408	–
O=C(CCCCCCNC(=O)C(=O)c1cn2c3c(cccc13)CCC2)NO [compound 12, 7-{[5,6-dihydro-4H-pyrrolo[3,2,1-ij]quinolin-1-yl(oxo)acetyl]amino}-N-hydroxyheptanamide]	–	298	1060	130	158 to 159	134	6420	87.6
O=C(CCCCCNC(=O)Nc1cn2c3c(cccc13)CCC2)NO [compound 13, 6-[(5,6-dihydro-4H-pyrrolo[3,2,1-ij]quinolin-1-ylcarbamoyl)amino]-N-hydroxyhexanamide]	–	–	97.2	–	161 to 163	63.2	918	20.5
O=C(CCCCCNC(=O)C(=O)c1cn2c3c(cccc13)CCC2)NO [compound 8, 6-{[5,6-dihydro-4H-pyrrolo[3,2,1-ij]quinolin-1-yl(oxo)acetyl]amino}-N-hydroxyhexanamide]	20.4	–	–	7680	150 to 155	77.6	9240	–
O=C(CCCCCCNC(=O)Nc1cn2c3c(cccc13)CCC2)NO [compound 11, 7-[(5,6-dihydro-4H-pyrrolo[3,2,1-ij]quinolin-1-ylcarbamoyl)amino]-N-hydroxyheptanamide]	–	40.4	88.7	470	185 to 187	66.4	492	23
O=C(CCCNC(=O)C(=O)c1cn2c3c(cccc13)CCC2)NO [compound 9, 4-{[5,6-dihydro-4H-pyrrolo[3,2,1-ij]quinolin-1-yl(oxo)acetyl]amino}-N-hydroxybutanamide]	630	–	–	4110	95 to 97	692	10000	–
O=C(CCCCCNC(=O)c1cn2c3c(cccc13)CCC2)NO [compound 2, N-[6-(hydroxyamino)-6-oxohexyl]-5,6-dihydro-4H-pyrrolo[3,2,1-ij]quinoline-1-carboxamide]	13.6	–	106	5000	–	67.2	1090	–
